Source: patent publication US8410161B2, “Thioxanthone ring system derivatives” (National Defense Medical Center, priority 2010, dated 2013)
Read-outs that look alike come from different tables or passages of the source.

Assays:
A control cell lines = assay: MTT assay, A control cell lines (lung cancer cell); assay type: cell-based
Description: Please refer to Table 1 and FIGS. 4A-4C. According to a MTT assay (Table 1), various cell viabilities of the A control cell lines can be obtained and illustrated in FIG. 4A while the compounds No. 2˜30 are used to treat A control cell lines, wherein A control cell lines are lung cancer cell.

A3 cell lines = assay: MTT assay, A3 cell lines (lung cancer stem cell); assay type: cell-based
Description: Please to FIG. 4B, various cell viabilities of the A3 cell lines can be obtained through the MTT assay and illustrated in FIG. 4B while the compounds No. 1˜30 are used to treat A3 cell lines, wherein A3 cell lines are lung cancer stem cell.

CCRF-CEM = assay: NCI in vitro DTP human cell line screen, CCRF-CEM; assay type: cell-based; settings: Leukemia, 1.00E−5 Molar
Experimental: (§1) Then, a cell toxicity assay of the cancer lines made by National Cancer Institute will be discussed as follows. The cell toxicity assay is performed by choosing ten compounds (existing certification numbers) from the 59 compounds disclosed in the present invention first.

HL-60(TB) = assay: NCI in vitro DTP human cell line screen, HL-60(TB); assay type: cell-based; settings: Leukemia, 1.00E−5 Molar
Experimental: as §1

MOLT-4 = assay: NCI in vitro DTP human cell line screen, MOLT-4; assay type: cell-based; settings: Leukemia, 1.00E−5 Molar
Experimental: as §1

RPMI-8226 = assay: NCI in vitro DTP human cell line screen, RPMI-8226; assay type: cell-based; settings: Leukemia, 1.00E−5 Molar
Experimental: as §1

SR = assay: NCI in vitro DTP human cell line screen, SR; assay type: cell-based; settings: Leukemia, 1.00E−5 Molar
Experimental: as §1

HOP-62 = assay: NCI in vitro DTP human cell line screen, HOP-62; assay type: cell-based; settings: Non-Small Cell Lung Cancer, 1.00E−5 Molar
Experimental: as §1

NCI-H226 = assay: NCI in vitro DTP human cell line screen, NCI-H226; assay type: cell-based; settings: Non-Small Cell Lung Cancer, 1.00E−5 Molar
Experimental: as §1

NCI-H23 = assay: NCI in vitro DTP human cell line screen, NCI-H23; assay type: cell-based; settings: Non-Small Cell Lung Cancer, 1.00E−5 Molar
Experimental: as §1

NCI-H460 = assay: NCI in vitro DTP human cell line screen, NCI-H460; assay type: cell-based; settings: Non-Small Cell Lung Cancer, 1.00E−5 Molar
Experimental: as §1

COLO 205 = assay: NCI in vitro DTP human cell line screen, COLO 205; assay type: cell-based; settings: Colon Cancer, 1.00E−5 Molar
Experimental: as §1

HCC-2998 = assay: NCI in vitro DTP human cell line screen, HCC-2998; assay type: cell-based; settings: Colon Cancer, 1.00E−5 Molar
Experimental: as §1

HCT-116 = assay: NCI in vitro DTP human cell line screen, HCT-116; assay type: cell-based; settings: Colon Cancer, 1.00E−5 Molar
Experimental: as §1

HCT-15 = assay: NCI in vitro DTP human cell line screen, HCT-15; assay type: cell-based; settings: Colon Cancer, 1.00E−5 Molar
Experimental: as §1

HT29 = assay: NCI in vitro DTP human cell line screen, HT29; assay type: cell-based; settings: Colon Cancer, 1.00E−5 Molar
Experimental: as §1

KM12 = assay: NCI in vitro DTP human cell line screen, KM12; assay type: cell-based; settings: Colon Cancer, 1.00E−5 Molar
Experimental: as §1

SW-620 = assay: NCI in vitro DTP human cell line screen, SW-620; assay type: cell-based; settings: Colon Cancer, 1.00E−5 Molar
Experimental: as §1

SF-268 = assay: NCI in vitro DTP human cell line screen, SF-268; assay type: cell-based; settings: CNS Cancer, 1.00E−5 Molar
Experimental: as §1

SNB-19 = assay: NCI in vitro DTP human cell line screen, SNB-19; assay type: cell-based; settings: CNS Cancer, 1.00E−5 Molar
Experimental: as §1

SNB-75 = assay: NCI in vitro DTP human cell line screen, SNB-75; assay type: cell-based; settings: CNS Cancer, 1.00E−5 Molar
Experimental: as §1

U251 = assay: NCI in vitro DTP human cell line screen, U251; assay type: cell-based; settings: CNS Cancer, 1.00E−5 Molar
Experimental: as §1

MALME-3M = assay: NCI in vitro DTP human cell line screen, MALME-3M; assay type: cell-based; settings: Melanoma, 1.00E−5 Molar
Experimental: as §1

M14 = assay: NCI in vitro DTP human cell line screen, M14; assay type: cell-based; settings: Melanoma, 1.00E−5 Molar
Experimental: as §1

MDA-MB-435 = assay: NCI in vitro DTP human cell line screen, MDA-MB-435; assay type: cell-based; settings: Melanoma, 1.00E−5 Molar
Experimental: as §1

SK-MEL-2 = assay: NCI in vitro DTP human cell line screen, SK-MEL-2; assay type: cell-based; settings: Melanoma, 1.00E−5 Molar
Experimental: as §1

SK-MEL-28 = assay: NCI in vitro DTP human cell line screen, SK-MEL-28; assay type: cell-based; settings: Melanoma, 1.00E−5 Molar
Experimental: as §1

SK-MEL-5 = assay: NCI in vitro DTP human cell line screen, SK-MEL-5; assay type: cell-based; settings: Melanoma, 1.00E−5 Molar
Experimental: as §1

UACC-257 = assay: NCI in vitro DTP human cell line screen, UACC-257; assay type: cell-based; settings: Melanoma, 1.00E−5 Molar
Experimental: as §1

UACC-62 = assay: NCI in vitro DTP human cell line screen, UACC-62; assay type: cell-based; settings: Melanoma, 1.00E−5 Molar
Experimental: as §1

IGROV1 = assay: NCI in vitro DTP human cell line screen, IGROV1; assay type: cell-based; settings: Ovarian Cancer, 1.00E−5 Molar
Experimental: as §1

OVCAR-3 = assay: NCI in vitro DTP human cell line screen, OVCAR-3; assay type: cell-based; settings: Ovarian Cancer, 1.00E−5 Molar
Experimental: as §1

OVCAR-5 = assay: NCI in vitro DTP human cell line screen, OVCAR-5; assay type: cell-based; settings: Ovarian Cancer, 1.00E−5 Molar
Experimental: as §1

OVCAR-8 = assay: NCI in vitro DTP human cell line screen, OVCAR-8; assay type: cell-based; settings: Ovarian Cancer, 1.00E−5 Molar
Experimental: as §1

NCI/ADR-RES = assay: NCI in vitro DTP human cell line screen, NCI/ADR-RES; assay type: cell-based; settings: Ovarian Cancer, 1.00E−5 Molar
Experimental: as §1

SK-OV-3 = assay: NCI in vitro DTP human cell line screen, SK-OV-3; assay type: cell-based; settings: Ovarian Cancer, 1.00E−5 Molar
Experimental: as §1

786-0 = assay: NCI in vitro DTP human cell line screen, 786-0; assay type: cell-based; settings: Renal Cancer, 1.00E−5 Molar
Experimental: as §1

CAKI-1 = assay: NCI in vitro DTP human cell line screen, CAKI-1; assay type: cell-based; settings: Renal Cancer, 1.00E−5 Molar
Experimental: as §1

RXF 393 = assay: NCI in vitro DTP human cell line screen, RXF 393; assay type: cell-based; settings: Renal Cancer, 1.00E−5 Molar
Experimental: as §1

SN12C = assay: NCI in vitro DTP human cell line screen, SN12C; assay type: cell-based; settings: Renal Cancer, 1.00E−5 Molar
Experimental: as §1

TK-10 = assay: NCI in vitro DTP human cell line screen, TK-10; assay type: cell-based; settings: Renal Cancer, 1.00E−5 Molar
Experimental: as §1

PC-3 = assay: NCI in vitro DTP human cell line screen, PC-3; assay type: cell-based; settings: Prostate Cancer, 1.00E−5 Molar
Experimental: as §1

DU145 = assay: NCI in vitro DTP human cell line screen, DU145; assay type: cell-based; settings: Prostate Cancer, 1.00E−5 Molar
Experimental: as §1

MCF7 = assay: NCI in vitro DTP human cell line screen, MCF7; assay type: cell-based; settings: Breast Cancer, 1.00E−5 Molar
Experimental: as §1

MDA-MB-231/ATCC = assay: NCI in vitro DTP human cell line screen, MDA-MB-231/ATCC; assay type: cell-based; settings: Breast Cancer, 1.00E−5 Molar
Experimental: as §1

BT-549 = assay: NCI in vitro DTP human cell line screen, BT-549; assay type: cell-based; settings: Breast Cancer, 1.00E−5 Molar
Experimental: as §1

T-47D = assay: NCI in vitro DTP human cell line screen, T-47D; assay type: cell-based; settings: Breast Cancer, 1.00E−5 Molar
Experimental: as §1

60 cancer lines = assay: NCI cell toxicity assay of 60 cancer lines, whole panel summary; assay type: cell-based, human; settings: 1.00E−5 Molar; for Growth Percent, Mean: mean over all cell lines
Experimental: as §1

[1] = summary of MTT cell viabilities

Question: What does the source list for `O=c1c2ccccc2sc2c(Cl)c(SCc3ccccc3)ccc12` [No. 23, 3-(Benzylthio)-4-chloro-9H-thioxanthen-9-one]?
Answer: cell viabilities of A control cell lines (MTT assay) (A control cell lines; A control, lung cancer cell): 36.6%; inhibition effect on A control cell line (in words) (A control cell lines; [1]): inhibition effect; cell viabilities of A3 cell lines (MTT assay) (A3 cell lines; A3, lung cancer stem cell): 65.9%; inhibition effect on A3 cell line (in words) (A3 cell lines; [1]): inhibition effect; Growth Percent (CCRF-CEM): 59.07%; Growth Percent (HL-60(TB)): 115.59%; Growth Percent (MOLT-4): 98.34%; Growth Percent (RPMI-8226): 89.98%; Growth Percent (SR): 36.57%; Growth Percent (HOP-62): 94.64%; Growth Percent (NCI-H226): 90.97%; Growth Percent (NCI-H23): 97.59%; Growth Percent (NCI-H460): 29.14%; Growth Percent (COLO 205): 63.36%; Growth Percent (HCC-2998): 101.78%; Growth Percent (HCT-116): 41.74%; Growth Percent (HCT-15): 82.20%; Growth Percent (HT29): 60.70%; Growth Percent (KM12): 104.90%; Growth Percent (SW-620): 69.53%; Growth Percent (SF-268): 100.29%; Growth Percent (SNB-19): 83.57%; Growth Percent (SNB-75): 75.12%; Growth Percent (U251): 38.89%; Growth Percent (MALME-3M): 93.38%; Growth Percent (M14): 102.67%; Growth Percent (MDA-MB-435): 91.01%; Growth Percent (SK-MEL-2): 116.81%; Growth Percent (SK-MEL-28): 119.10%; Growth Percent (SK-MEL-5): 99.73%; Growth Percent (UACC-257): 109.84%; Growth Percent (UACC-62): 90.92%; Growth Percent (IGROV1): 56.63%; Growth Percent (OVCAR-3): 76.97%; Growth Percent (OVCAR-5): 94.34%; Growth Percent (OVCAR-8): 82.11%; Growth Percent (NCI/ADR-RES): 90.62%; Growth Percent (SK-OV-3): 94.39%; Growth Percent (786-0): 78.53%; Growth Percent (CAKI-1): 54.75%; Growth Percent (RXF 393): 106.84%; Growth Percent (SN12C): 79.25%; Growth Percent (TK-10): 95.49%; Growth Percent (PC-3): 83.92%; Growth Percent (DU145): 107.70%; Growth Percent (MCF7): 89.62%; Growth Percent (MDA-MB-231/ATCC): 71.98%; Growth Percent (BT-549): 84.98%; Growth Percent (T-47D): 82.55%; Growth Percent, Mean (60 cancer lines): 81.22%; cancer types with the better inhibition effect (in words) (60 cancer lines; summary of Table 3): better inhibition effect on Leukemia, non-small cell lung cancer, colorectal cancer, central nervous system cancer, ovarian cancer and kidney cancer

Question: What does the source list for `O=c1c2ccccc2sc2c(Cl)c(SCc3ccc(Cl)cc3)ccc12` [No. 26, 4-Chloro-3-(4-chlorobenzylthio)-9H-thioxanthen-9-one]?
Answer: cell viabilities of A control cell lines (MTT assay) (A control cell lines): 96.8 ± 4.29%; cell viabilities of A3 cell lines (MTT assay) (A3 cell lines): 62.4%; Growth Percent (CCRF-CEM): 92.28%; Growth Percent (HL-60(TB)): 105.29%; Growth Percent (MOLT-4): 96.00%; Growth Percent (RPMI-8226): 91.09%; Growth Percent (SR): 93.51%; Growth Percent (HOP-62): 89.02%; Growth Percent (NCI-H226): 94.77%; Growth Percent (NCI-H23): 96.57%; Growth Percent (NCI-H460): 106.85%; Growth Percent (COLO 205): 108.87%; Growth Percent (HCC-2998): 107.66%; Growth Percent (HCT-116): 96.31%; Growth Percent (HCT-15): 104.80%; Growth Percent (HT29): 103.09%; Growth Percent (KM12): 107.42%; Growth Percent (SW-620): 105.00%; Growth Percent (SF-268): 101.57%; Growth Percent (SNB-19): 96.85%; Growth Percent (SNB-75): 96.90%; Growth Percent (U251): 86.21%; Growth Percent (MALME-3M): 105.22%; Growth Percent (M14): 101.01%; Growth Percent (MDA-MB-435): 108.59%; Growth Percent (SK-MEL-2): 90.37%; Growth Percent (SK-MEL-28): 114.10%; Growth Percent (SK-MEL-5): 101.76%; Growth Percent (UACC-257): 92.94%; Growth Percent (UACC-62): 92.54%; Growth Percent (IGROV1): 104.47%; Growth Percent (OVCAR-3): 130.11%; Growth Percent (OVCAR-5): 102.23%; Growth Percent (OVCAR-8): 86.47%; Growth Percent (NCI/ADR-RES): 100.89%; Growth Percent (SK-OV-3): 97.10%; Growth Percent (786-0): 106.48%; Growth Percent (CAKI-1): 98.76%; Growth Percent (RXF 393): 109.38%; Growth Percent (SN12C): 94.51%; Growth Percent (TK-10): 100.13%; Growth Percent (PC-3): 93.28%; Growth Percent (DU145): 108.56%; Growth Percent (MCF7): 94.48%; Growth Percent (MDA-MB-231/ATCC): 95.00%; Growth Percent (BT-549): 94.67%; Growth Percent (T-47D): 87.73%; Growth Percent, Mean (60 cancer lines): 99.47%
